Assay results: patent US20240285571A1, “METHODS OF TREATING BONE INFECTIONS” (MICROBION CORPORATION, priority 2020, published 2024)
Converted amounts (≈) assume the structure as drawn. Where two headings read alike, the source gives them in different places.

Assays:
Type in all cases: cell-based
Escherichia coli = assay: Broth microdilution MIC (Example 6); conditions: Escherichia coli, read-out: MIC
Description: (§1) Test Compounds: The test agents BisEDT (MB-1-B3; Lot No. ED268-1-11-01), MB-2B, and MB-6 were stored at room temperature, in the dark, until assayed.
(§2) For testing daptomycin, calcium was supplemented with […] Ca^2+, resulting in a final concentration of […] Ca^2+ (2, 3).
(§3) MIC Assay Procedure: MIC values were determined using a broth microdilution procedure described by CLSI (2, 3).
(§4) The Biomek 2000 was then used to make 2-fold serial dilutions in the mother plates from column 1 through column 11. The wells of column 12 contained no drug and served as the organism growth control wells for the assay.
(§5) The test panels were prepared on the Biomek FX instrument which transferred 2 μL of drug solution from each well of a mother plate to the corresponding well of each daughter plate in a single step.
(§6) A standardized inoculum of each test organism was prepared per CLSI methods to equal a 0.5 McFarland standard, followed by a dilution of 1:20. The plates were then inoculated with 10 μL of the diluted inoculum using the Biomek 2000 from low to high drug concentration resulting in a final concentration of approximately 5×10^5 CFU/mL.
(§7) Plates were stacked 3-4 high, covered with a lid on the top plate, placed into plastic bags, and incubated at 35° C. for 16 to 20 hr (vancomycin was read for S. aureus after 24 hr incubation time). The MIC was recorded as the lowest concentration of drug that inhibited visible growth of the organism.

Klebsiella pneumoniae = assay: Broth microdilution MIC (Example 6); conditions: Klebsiella pneumoniae, read-out: MIC
Description: as §1, §2, §3, §4, §5, §6, §7

Pseudomonas aeruginosa = assay: Broth microdilution MIC (Example 6); conditions: Pseudomonas aeruginosa, read-out: MIC
Description: as §1, §2, §3, §4, §5, §6, §7

Acinetobacter baumannii = assay: Broth microdilution MIC (Example 6); conditions: Acinetobacter baumannii
Procedure, shortened: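 CLSI broth microdilution in cation-adjusted Mueller Hinton broth, test agents 0.06-64 μg/mL from DMSO stocks, inoculum approx. 5×10^5 CFU/mL. Incubation 35° C for 16–20 hr; MIC taken as lowest concentration inhibiting visible growth.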

[1] = test system: relevant ATCC QC organisms; assay: Broth microdilution MIC, QC (Example 6)
Description: Test Compounds: The test agents BisEDT (MB-1-B3; Lot No. ED268-1-11-01), MB-2B, and MB-6 were stored at room temperature, in the dark, until assayed. The solvent and diluent for the test agents was DMSO (Sigma; St. Louis, MO; Lot No. SHBB9319V) and the prepared stock concentration was 6,464 μg/mL (101× the final test concentration).
Test compounds were evaluated at a concentration range of 0.06-64 μg/mL. For Gram-negative test isolates, amikacin and ceftazidime (alone and with clavulanate at a fixed concentration of 4 μg/mL) were evaluated over a concentration range of 0.06-64 μg/mL; meropenem and levofloxacin were evaluated over a concentration range of 0.008-8 μg/mL. For the testing of S. aureus, clindamycin, daptomycin, levofloxacin and vancomycin were evaluated at a concentration range of 0.008-8 μg/mL; linezolid was tested from 0.03-32 μg/mL.
Organisms: The test organisms as shown in Tables 11-15 consisted of clinical isolates from the Micromyx (MMX) repository and reference strains from the American Type Culture Collection (ATCC; Manassas, VA), National Collection of Type Cultures (NCTC; Public Health England, Salisbury, UK), the Network on Antimicrobial Resistance in Staphylococcus aureus (NARSA; BEI Resources, Manassas, VA), and the Centers for Disease Control and Prevention (CDC; Atlanta, GA). The test organisms were maintained frozen at −80° C. Prior to testing, the isolates were cultured on Tryptic Soy Agar with 5% sheep blood (BAP; Becton Dickson [BD]/BBL; Sparks, MD; Lot Nos. 9080650 and 9108563) at 35° C. Relevant ATCC quality control (QC) organisms (Table 16) were included during testing in accordance with CLSI guidelines (3). Further details on the genetic characterization of the isolates where available can be found in Table 17.
Media: Cation-adjusted Mueller Hinton broth (CAMHB; BD; Lot No. 8190586) was used as the medium for testing (2, 3). For testing daptomycin, calcium was supplemented with […] Ca^2+, resulting in a final concentration of […] Ca^2+ (2, 3).
MIC Assay Procedure: MIC values were determined using a broth microdilution procedure described by CLSI (2, 3). Automated liquid handlers (Multidrop 384, Labsystems, Helsinki, Finland; Biomek 2000 and Biomek F X, Beckman Coulter, Fullerton CA) were used to conduct serial dilutions and liquid transfers.
To prepare the drug mother plates, which would provide the serial drug dilutions for the replicate daughter plates, the wells of columns 2 through 12 of standard 96-well microdilution plates (Costar 3795) were filled with 150 μl of the appropriate diluent for each row of drug. The test articles and comparator compounds (300 μl at 101× the highest concentration to be tested) were dispensed into the appropriate wells in column 1. The Biomek 2000 was then used to make 2-fold serial dilutions in the mother plates from column 1 through column 11. The wells of column 12 contained no drug and served as the organism growth control wells for the assay.
The daughter plates were loaded with 190 μL per well of RPMI using the Multidrop 384. The test panels were prepared on the Biomek FX instrument which transferred 2 μL of drug solution from each well of a mother plate to the corresponding well of each daughter plate in a single step.
as §6, §7

[2] = ATCC35218, E. coli ATCC 35218, ESBL
[3] = K. pneumoniae CDC 135, ESBL/VIM
[4] = P. aeruginosa isolate CDC 241, β-lactamase type IMP/OXA

What does the source list for `NCC[C@H](O)C(=O)N[C@@H]1C[C@H](N)[C@@H](O[C@H]2O[C@H](CN)[C@@H](O)[C@H](O)[C@H]2O)[C@H](O)[C@H]1O[C@H]1O[C@H](CO)[C@@H](O)[C@H](N)[C@H]1O` [Amikacin]?
MIC (Escherichia coli; [2]): 1 µg/mL (≈ 1.71 µM); MIC (Escherichia coli; ATCCBAA2471, E. coli ATCC BAA-2471, NDM): 64 µg/mL (≈ 109 µM); MIC (Escherichia coli; E. coli CDC 114, ESBL/KPC): 1 µg/mL (≈ 1.71 µM); MIC (Escherichia coli; E. coli CDC 118, ESBL/NDM): > 64 µg/mL; MIC (Escherichia coli; E. coli CDC 435, NDM): > 64 µg/mL; MIC (Escherichia coli; E. coli CDC 451, KPC): 4 µg/mL (≈ 6.83 µM); MIC (Escherichia coli; E. coli CDC 503, ESBL/NDM): > 64 µg/mL; MIC (Escherichia coli; E. coli MMX 5745, KPC): 0.5 µg/mL (≈ 0.854 µM); MIC (Escherichia coli; E. coli MMX 5755, ESBL): 16 µg/mL (≈ 27.3 µM); MIC (Escherichia coli; E. coli MMX 5756, ESBL): 64 µg/mL (≈ 109 µM); MIC (Escherichia coli; E. coli MMX 5758, ESBL): 1 µg/mL (≈ 1.71 µM); MIC (Klebsiella pneumoniae; ATCCBAA1705, K. pneumoniae ATCC BAA-1705, ESBL/KPC): 16 µg/mL (≈ 27.3 µM); MIC (Klebsiella pneumoniae; K. pneumoniae CDC 112, KPC): 16 µg/mL (≈ 27.3 µM); MIC (Klebsiella pneumoniae; K. pneumoniae CDC 113, ESBL/KPC): 16 µg/mL (≈ 27.3 µM); MIC (Klebsiella pneumoniae; K. pneumoniae CDC 115, ESBL/KPC): 0.5 µg/mL (≈ 0.854 µM); MIC (Klebsiella pneumoniae; K. pneumoniae CDC 120, ESBL/KPC): 16 µg/mL (≈ 27.3 µM); MIC (Klebsiella pneumoniae; K. pneumoniae CDC 126, ESBL/KPC): 2 µg/mL (≈ 3.42 µM); MIC (Klebsiella pneumoniae; K. pneumoniae CDC 129, ESBL/KPC): 32 µg/mL (≈ 54.6 µM); MIC (Klebsiella pneumoniae; [3]): 16 µg/mL (≈ 27.3 µM); MIC (Klebsiella pneumoniae; K. pneumoniae CDC 138, ESBL/NDM): > 64 µg/mL; MIC (Klebsiella pneumoniae; K. pneumoniae CDC 158, ESBL/NDM/OXA): 2 µg/mL (≈ 3.42 µM); MIC (Klebsiella pneumoniae; K. pneumoniae MMX 9029, ESBL): 0.5 µg/mL (≈ 0.854 µM); MIC (Pseudomonas aeruginosa; P. aeruginosa isolate CDC 230, β-lactamase type VIM/OXA): > 64 µg/mL; MIC (Pseudomonas aeruginosa; P. aeruginosa isolate CDC 231, β-lactamase type KPC/OXA): 8 µg/mL (≈ 13.7 µM); MIC (Pseudomonas aeruginosa; [4]): 32 µg/mL (≈ 54.6 µM); MIC (Pseudomonas aeruginosa; P. aeruginosa isolate CDC 246, β-lactamase type NDM/OXA): > 64 µg/mL; MIC (Pseudomonas aeruginosa; P. aeruginosa isolate CDC 250, β-lactamase type NDM/OXA): > 64 µg/mL; MIC (Pseudomonas aeruginosa; P. aeruginosa isolate CDC 356, β-lactamase type KPC): 2 µg/mL (≈ 3.42 µM); MIC (Pseudomonas aeruginosa; P. aeruginosa isolate CDC 439, β-lactamase type IMP): > 64 µg/mL; MIC (Pseudomonas aeruginosa; P. aeruginosa isolate CDC 444, β-lactamase type VIM): > 64 µg/mL; MIC (Pseudomonas aeruginosa; P. aeruginosa isolate CDC 457, β-lactamase type VIM): 2 µg/mL (≈ 3.42 µM); MIC (Pseudomonas aeruginosa; P. aeruginosa isolate CDC 516, β-lactamase type KPC/AmpC): 2 µg/mL (≈ 3.42 µM); MIC (Acinetobacter baumannii; A. baumannii isolate CDC 273, β-lactamase type ESBL/OXA, read-out: MIC): > 64 µg/mL; MIC (Acinetobacter baumannii; A. baumannii isolate CDC 274, β-lactamase type ESBL/OXA, read-out: MIC): 16 µg/mL; MIC (Acinetobacter baumannii; A. baumannii isolate CDC 275, β-lactamase type ESBL/OXA, read-out: MIC): > 64 µg/mL; MIC (Acinetobacter baumannii; A. baumannii isolate CDC 277, β-lactamase type ESBL/OXA, read-out: MIC): 16 µg/mL; MIC (Acinetobacter baumannii; A. baumannii isolate CDC 284, β-lactamase type ESBL/OXA, read-out: MIC): 32 µg/mL; MIC (Acinetobacter baumannii; A. baumannii isolate CDC 307, β-lactamase type OXA, read-out: MIC): > 64 µg/mL; MIC (Acinetobacter baumannii; A. baumannii isolate CDC 308, β-lactamase type ESBL/OXA, read-out: MIC): > 64 µg/mL; MIC (Acinetobacter baumannii; A. baumannii isolate CDC 311, β-lactamase type OXA, read-out: MIC): > 64 µg/mL; MIC (Acinetobacter baumannii; A. baumannii isolate CDC 312, β-lactamase type OXA, read-out: MIC): 1 µg/mL; MIC (Acinetobacter baumannii; A. baumannii isolate CDC 313, β-lactamase type ESBL/OXA, read-out: MIC): 4 µg/mL; MIC (Acinetobacter baumannii; NCTC13304, A. baumannii isolate NCTC 13304, β-lactamase type OXA, read-out: MIC): 0.5 µg/mL; MIC ([1]; Escherichia coli, ATCC25922, E. coli ATCC 25922, read-out: MIC): 1 µg/mL; MIC ([1]; Escherichia coli, ATCC35218, E. coli ATCC 35218, read-out: MIC): 1 µg/mL; MIC ([1]; Klebsiella pneumoniae, ATCCBAA1705, K. pneumoniae ATCC BAA-1705, read-out: MIC): 16 µg/mL; MIC ([1]; Pseudomonas aeruginosa, ATCC27853, P. aeruginosa ATCC 27853, read-out: MIC): 2 µg/mL

For `CC(S)C(C)S.[Bi]` (centres unmarked) [MB-6, bismuth-2,3-butanedithiol], which MIC (Escherichia coli; [2]) is on record?
The MIC was 1 µg/mL.

And the MIC (Escherichia coli; E. coli MMX 5755, ESBL)?
Its MIC is 2 µg/mL.

What about the MIC (Escherichia coli; E. coli MMX 5756, ESBL) of the same compound?
The MIC was 1 µg/mL.

And the MIC (Klebsiella pneumoniae; [3])?
Its MIC is 4 µg/mL.

And the MIC (Klebsiella pneumoniae; K. pneumoniae MMX 9029, ESBL)?
The MIC was 2 µg/mL.

And the MIC (Pseudomonas aeruginosa; [4])?
The MIC was 8 µg/mL.

And the MIC (Acinetobacter baumannii; A. baumannii isolate CDC 273, β-lactamase type ESBL/OXA)?
The MIC was 0.5 µg/mL.

What about the MIC (Acinetobacter baumannii; A. baumannii isolate CDC 274, β-lactamase type ESBL/OXA) of the same compound?
Its MIC is 0.5 µg/mL.

What about the MIC (Acinetobacter baumannii; A. baumannii isolate CDC 275, β-lactamase type ESBL/OXA) of the same compound?
The MIC was 0.5 µg/mL.

And the MIC (Acinetobacter baumannii; A. baumannii isolate CDC 277, β-lactamase type ESBL/OXA)?
Its MIC is 1 µg/mL.

What about the MIC (Acinetobacter baumannii; A. baumannii isolate CDC 284, β-lactamase type ESBL/OXA) of the same compound?
Its MIC is 1 µg/mL.

What about the MIC (Acinetobacter baumannii; A. baumannii isolate CDC 307, β-lactamase type OXA) of the same compound?
The MIC was 0.5 µg/mL.

And the MIC (Acinetobacter baumannii; A. baumannii isolate CDC 308, β-lactamase type ESBL/OXA)?
Its MIC is 0.5 µg/mL.

What about the MIC (Acinetobacter baumannii; A. baumannii isolate CDC 311, β-lactamase type OXA) of the same compound?
Its MIC is 0.5 µg/mL.

And the MIC (Acinetobacter baumannii; A. baumannii isolate CDC 312, β-lactamase type OXA)?
Its MIC is 0.5 µg/mL.

And the MIC (Acinetobacter baumannii; A. baumannii isolate CDC 313, β-lactamase type ESBL/OXA)?
The MIC was 0.5 µg/mL.

What about the MIC (Acinetobacter baumannii; NCTC13304, A. baumannii isolate NCTC 13304, β-lactamase type OXA) of the same compound?
Its MIC is 0.5 µg/mL.

Which MIC ([1]; S. aureus ATCC 29213) does the source give for `CCC[C@@H]1C[C@@H](C(=O)N[C@@H]([C@H]2O[C@H](SC)[C@H](O)[C@@H](O)[C@H]2O)[C@H](C)Cl)N(C)C1` [CLI] here?
The MIC was 0.25 µg/mL.
